Measurements taken from patent publication US20040191926A1 (priority 2001, published 2004).

Key:
CD45 = target: T1, CD45 (Homo sapiens, UniProt P08575); experiment: Phosphatase panel, pNPP assay; assay type: biochemical; conditions: at 10 μM
T1 construct: The intracellular fragment of PTPa, LAR and CD45 containing both of the PTPase domains was cleaved off the fusion protein; GST (cleaved yes); made in house
T1 sequence (P08575 599-1306 limits assumed): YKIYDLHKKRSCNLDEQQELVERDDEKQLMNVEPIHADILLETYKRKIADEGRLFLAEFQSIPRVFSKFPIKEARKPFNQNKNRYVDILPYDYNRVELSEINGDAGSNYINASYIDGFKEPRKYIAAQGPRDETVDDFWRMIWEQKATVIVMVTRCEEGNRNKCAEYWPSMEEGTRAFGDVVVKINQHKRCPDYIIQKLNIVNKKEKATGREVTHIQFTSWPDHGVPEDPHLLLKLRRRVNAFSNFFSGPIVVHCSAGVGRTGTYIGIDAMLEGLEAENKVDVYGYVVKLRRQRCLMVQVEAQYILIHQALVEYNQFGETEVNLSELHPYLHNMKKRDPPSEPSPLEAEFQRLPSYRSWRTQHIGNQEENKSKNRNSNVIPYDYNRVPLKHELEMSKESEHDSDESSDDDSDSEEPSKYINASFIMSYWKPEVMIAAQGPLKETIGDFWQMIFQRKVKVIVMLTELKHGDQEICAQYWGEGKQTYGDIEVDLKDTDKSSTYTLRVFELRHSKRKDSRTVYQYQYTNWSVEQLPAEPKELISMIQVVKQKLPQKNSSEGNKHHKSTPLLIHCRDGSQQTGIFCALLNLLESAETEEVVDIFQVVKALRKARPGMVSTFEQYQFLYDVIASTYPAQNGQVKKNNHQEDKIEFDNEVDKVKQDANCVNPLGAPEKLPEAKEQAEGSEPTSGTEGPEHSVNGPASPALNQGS

TCPTP = target: T2, TCPTP (Homo sapiens, UniProt P17706); experiment: PTPase activity assay with pNPP substrate; assay type: biochemical; conditions: pH 7.0, ionic strength 0.15 M, read-out: Inhibition Potency, Ki
T2 construct: catalytic domain (amino acid residues 1-288) of the human T cell PTPase (TCPTP); made in house
T2 sequence (P17706 1-288): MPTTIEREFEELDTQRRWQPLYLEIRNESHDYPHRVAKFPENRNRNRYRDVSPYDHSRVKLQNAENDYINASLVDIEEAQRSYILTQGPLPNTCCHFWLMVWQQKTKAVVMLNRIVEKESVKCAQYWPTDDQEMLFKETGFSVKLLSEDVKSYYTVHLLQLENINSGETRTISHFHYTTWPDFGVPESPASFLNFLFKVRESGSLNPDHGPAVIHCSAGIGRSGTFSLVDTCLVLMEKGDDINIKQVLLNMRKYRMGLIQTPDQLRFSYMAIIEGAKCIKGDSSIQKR

SHP2 = target: T3, SHP2 (Homo sapiens, UniProt Q06124); experiment: Phosphatase panel, pNPP assay; assay type: biochemical; conditions: 2 mM pNPP; read-out: Inhibition Potency, IC50
T3 construct: the catalytic domains of SHP1 and SHP2 were expressed and purified as (His)6-fusion proteins; (His)6; made in house
T3 sequence (Q06124 247-517 limits assumed): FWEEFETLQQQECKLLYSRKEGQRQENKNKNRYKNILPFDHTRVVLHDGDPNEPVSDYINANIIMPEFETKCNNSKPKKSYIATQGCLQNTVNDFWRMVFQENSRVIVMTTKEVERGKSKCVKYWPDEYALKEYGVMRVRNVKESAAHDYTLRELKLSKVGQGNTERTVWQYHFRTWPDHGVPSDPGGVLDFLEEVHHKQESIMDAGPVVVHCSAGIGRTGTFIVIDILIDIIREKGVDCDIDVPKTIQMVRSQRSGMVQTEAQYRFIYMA

VHR = target: T4, VHR (Homo sapiens, UniProt P51452); experiment: Phosphatase panel, pNPP assay; assay type: biochemical; conditions: at 10 μM
T4 construct: made in house; host or cells: E. coli

MKP3 = experiment: Phosphatase panel, pNPP assay; assay type: biochemical; conditions: at 10 μM
HePTP = target: T5, HePTP (Homo sapiens, UniProt P35236); experiment: Phosphatase panel, pNPP assay; assay type: biochemical; conditions: at 10 μM
T5 construct: (His)6; made in house
T5 sequence (P35236 1-360): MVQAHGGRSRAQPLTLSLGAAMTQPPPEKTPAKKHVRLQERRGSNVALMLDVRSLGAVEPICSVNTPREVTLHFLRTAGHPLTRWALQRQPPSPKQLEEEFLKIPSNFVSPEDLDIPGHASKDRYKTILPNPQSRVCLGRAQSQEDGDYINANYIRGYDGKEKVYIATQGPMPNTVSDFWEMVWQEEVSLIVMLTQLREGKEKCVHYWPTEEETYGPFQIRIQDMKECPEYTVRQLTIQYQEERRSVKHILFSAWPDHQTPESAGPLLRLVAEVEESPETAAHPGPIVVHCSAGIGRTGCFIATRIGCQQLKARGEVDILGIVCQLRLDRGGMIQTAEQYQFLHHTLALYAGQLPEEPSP

PTPα = target: T6, PTPα (Homo sapiens, UniProt P18433); experiment: Phosphatase panel, pNPP assay; assay type: biochemical; conditions: at 10 μM
T6 construct: The intracellular fragment of PTPa, LAR and CD45 containing both of the PTPase domains was cleaved off the fusion protein; GST (cleaved yes); made in house

Yersinia PTP = target: T7, Yersinia PTP (Yersinia enterocolitica, UniProt P15273); experiment: biochemical
T7 construct: made in house; host or cells: E. coli

Stp1 = target: T8, Stp1 (Schizosaccharomyces pombe, UniProt P41893); experiment: Phosphatase panel, pNPP assay; assay type: biochemical; conditions: at 10 μM
T8 construct: made in house; host or cells: E. coli
T8 sequence (P41893 1-156): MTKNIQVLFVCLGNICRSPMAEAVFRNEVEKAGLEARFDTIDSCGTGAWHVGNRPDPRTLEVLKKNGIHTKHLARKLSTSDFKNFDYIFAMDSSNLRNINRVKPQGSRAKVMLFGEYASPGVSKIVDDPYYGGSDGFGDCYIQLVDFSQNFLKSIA

SHP1 = target: T9, SHP1 (Homo sapiens, UniProt P29350); experiment: Phosphatase panel, pNPP assay; assay type: biochemical; conditions: 2 mM pNPP; read-out: Inhibition Potency, IC50
T9 construct: the catalytic domains of SHP1 and SHP2 were expressed and purified as (His)6-fusion proteins; (His)6; made in house
T9 sequence (P29350 244-515 limits assumed): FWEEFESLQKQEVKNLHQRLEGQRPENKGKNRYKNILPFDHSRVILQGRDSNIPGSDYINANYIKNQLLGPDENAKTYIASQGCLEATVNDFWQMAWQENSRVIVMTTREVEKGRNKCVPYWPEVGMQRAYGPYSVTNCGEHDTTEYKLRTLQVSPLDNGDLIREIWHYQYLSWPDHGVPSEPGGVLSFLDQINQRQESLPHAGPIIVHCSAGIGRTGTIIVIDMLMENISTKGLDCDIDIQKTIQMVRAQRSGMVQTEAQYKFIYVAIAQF

T7 sequence (P15273 whole entry): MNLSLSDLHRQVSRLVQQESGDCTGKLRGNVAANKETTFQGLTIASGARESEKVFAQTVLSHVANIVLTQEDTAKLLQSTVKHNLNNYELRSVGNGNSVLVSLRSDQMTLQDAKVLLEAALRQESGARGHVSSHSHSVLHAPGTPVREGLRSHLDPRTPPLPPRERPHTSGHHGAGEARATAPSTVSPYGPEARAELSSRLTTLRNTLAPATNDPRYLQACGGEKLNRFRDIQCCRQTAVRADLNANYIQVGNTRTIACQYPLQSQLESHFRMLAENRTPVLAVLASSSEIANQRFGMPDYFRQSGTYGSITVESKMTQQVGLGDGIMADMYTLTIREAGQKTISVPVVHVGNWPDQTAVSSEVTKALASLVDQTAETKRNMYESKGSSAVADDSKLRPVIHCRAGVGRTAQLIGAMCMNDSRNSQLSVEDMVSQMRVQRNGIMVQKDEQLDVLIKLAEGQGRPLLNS
T4 sequence (P51452 whole entry, species assumed): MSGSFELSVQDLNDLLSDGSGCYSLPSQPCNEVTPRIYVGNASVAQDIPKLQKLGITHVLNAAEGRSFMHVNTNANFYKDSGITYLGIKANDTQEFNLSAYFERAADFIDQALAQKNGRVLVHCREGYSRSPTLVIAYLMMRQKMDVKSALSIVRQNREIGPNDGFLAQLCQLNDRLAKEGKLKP

## NC(=O)C(Cc1ccc(C(F)(F)P(=O)(O)O)cc1)NC(=O)C(CC(=O)O)NC(=O)Cc1ccc(C(F)(F)P(=O)(O)O)cc1 (stereo not shown) [Compound 40]
CD45
  Inhibition Potency: No inhibition at 10 μM
TCPTP
  Ki: 0.026 µM
SHP2
  IC50: 10 µM
VHR
  Inhibition Potency: No inhibition at 10 μM
MKP3
  Inhibition Potency: No inhibition at 10 μM
HePTP
  Inhibition Potency: No inhibition at 10 μM
PTPα
  Inhibition Potency: No inhibition at 10 μM
Yersinia PTP
  IC50: 1.6 µM
Stp1
  Inhibition Potency: No inhibition at 10 μM
SHP1
  IC50: 11 µM
